{"source": "patent US6355799B1", "about": "“Substituted benzene compounds, process for their preparation, and herbicidal and defoliant compositions containing them” (ISK Americas Incorporated, priority 1997, dated 2002)", "type_in_all_cases": "in vivo", "key": {"[1]": {"system": "barnyardgrass (Echinochloa crus-galli, ECHCG)", "assay": "Post-emerge test, greenhouse herbicide activity screening", "settings": "phytotoxicity rating 0-100 (0 no damage, 100 complete death), 14 days after application", "how_it_was_run": "(§1)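 Compounds in acetone were track-sprayed at 15–1000 g ai/ha: pre-emergence onto soil sown the previous day, then top-watered to incorporate and later bottom-watered; post-emergence onto 2–3 leaf plants with 0.25% v/v surfactant, bottom-watered only. Ratings on a 0–100 phytotoxicity scale were taken at day 14.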"}, "[2]": {"system": "sicklepod (Cassia obtusifolia, CASOB)", "assay": "Post-emerge test, greenhouse herbicide activity screening", "settings": "phytotoxicity rating 0-100 (0 no damage, 100 complete death), 14 days after application", "how_it_was_run": "as §1"}, "[3]": {"system": "green foxtail (Setaria viridis, SETVI)", "assay": "Post-emerge test, greenhouse herbicide activity screening", "settings": "phytotoxicity rating 0-100 (0 no damage, 100 complete death), 14 days after application", "how_it_was_run": "as §1"}, "[4]": {"system": "common ragweed (Ambrosia artemisizfolia L., AMBEL)", "assay": "Post-emerge test, greenhouse herbicide activity screening", "settings": "phytotoxicity rating 0-100 (0 no damage, 100 complete death), 14 days after application", "how_it_was_run": "as §1"}, "[5]": {"system": "ivyleaf morningglory (Ipomoea hederacea, IPOHE)", "assay": "Post-emerge test, greenhouse herbicide activity screening", "settings": "phytotoxicity rating 0-100 (0 no damage, 100 complete death), 14 days after application", "how_it_was_run": "as §1"}, "[6]": {"system": "large crabgrass (Digitaria sanguinalis, DIGSA)", "assay": "Post-emerge test, greenhouse herbicide activity screening", "settings": "phytotoxicity rating 0-100 (0 no damage, 100 complete death), 14 days after application", "how_it_was_run": "as §1"}, "[7]": {"system": "redroot pigweed (Amaranthus retroflexus, AMARE)", "assay": "Post-emerge test, greenhouse herbicide activity screening", "settings": "phytotoxicity rating 0-100 (0 no damage, 100 complete death), 14 days after application", "how_it_was_run": "as §1"}, "[8]": {"system": "velvetleaf (Abutilon theophrasti, ABUTH)", "assay": "Post-emerge test, greenhouse herbicide activity screening", "settings": "phytotoxicity rating 0-100 (0 no damage, 100 complete death), 14 days after application", "how_it_was_run": "as §1"}, "[9]": {"system": "lambsquarters (Chenopodium album, CHEAL)", "assay": "Post-emerge test, greenhouse herbicide activity screening", "settings": "phytotoxicity rating 0-100 (0 no damage, 100 complete death), 14 days after application", "how_it_was_run": "as §1"}, "[10]": {"system": "upland rice (Oryza sp., var. Tebonnet, RICE)", "assay": "Pre-emerge test, crop safety", "settings": "pre-emerge, rated 14 days after application, 0 = no damage, 100 = complete death", "how_it_was_run": "(§2)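 Visual ratings on a 0-100 scale (0 no damage, 100 all plants dead) were taken at 14 days after treatment. Rates of 15-1000 g ai/ha in acetone, 187 l/ha, were sprayed onto soil one day after planting (pre-emerge) or onto 2-3 leaf plants with 0.25% v/v surfactant (post-emerge).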"}, "[11]": {"system": "field corn (Zea mays L., var. Dekalb 535, CORN)", "assay": "Pre-emerge test, crop safety", "settings": "pre-emerge, rated 14 days after application, 0 = no damage, 100 = complete death", "how_it_was_run": "as §2"}, "[12]": {"system": "upland rice (Oryza sp., var. Tebonnet, RICE)", "assay": "Post-emerge test, crop safety", "settings": "phytotoxicity rating 0-100 (0 no damage, 100 complete death), 14 days after application", "how_it_was_run": "(§3)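 Rating: 0–100 visual injury, 14 DAA. Application: acetone, 187 l/ha, 15–1000 g ai/ha, flat-fan track sprayer with nozzle 40–45 cm above soil or canopy. Post-emerge runs used 0.25% v/v surfactant on 2–3 leaf plants.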"}, "[13]": {"system": "field corn (Zea mays L., var. Dekalb 535, CORN)", "assay": "Post-emerge test, crop safety", "settings": "phytotoxicity rating 0-100 (0 no damage, 100 complete death), 14 days after application", "how_it_was_run": "as §3"}, "[14]": {"system": "johnsongrass (Sorghum halepense, SORHA)", "assay": "Pre-emerge test, greenhouse herbicide activity screening", "settings": "pre-emerge, rated 14 days after application, 0 = no damage, 100 = complete death", "how_it_was_run": "as §1"}, "[15]": {"system": "barnyardgrass (Echinochloa crus-galli, ECHCG)", "assay": "Pre-emerge test, greenhouse herbicide activity screening", "settings": "pre-emerge, rated 14 days after application, 0 = no damage, 100 = complete death", "how_it_was_run": "as §1"}, "[16]": {"system": "sicklepod (Cassia obtusifolia, CASOB)", "assay": "Pre-emerge test, greenhouse herbicide activity screening", "settings": "pre-emerge, rated 14 days after application, 0 = no damage, 100 = complete death", "how_it_was_run": "as §1"}, "[17]": {"system": "green foxtail (Setaria viridis, SETVI)", "assay": "Pre-emerge test, greenhouse herbicide activity screening", "settings": "pre-emerge, rated 14 days after application, 0 = no damage, 100 = complete death", "how_it_was_run": "as §1"}, "[18]": {"system": "common ragweed (Ambrosia artemisizfolia L., AMBEL)", "assay": "Pre-emerge test, greenhouse herbicide activity screening", "settings": "pre-emerge, rated 14 days after application, 0 = no damage, 100 = complete death", "how_it_was_run": "as §1"}, "[19]": {"system": "ivyleaf morningglory (Ipomoea hederacea, IPOHE)", "assay": "Pre-emerge test, greenhouse herbicide activity screening", "settings": "pre-emerge, rated 14 days after application, 0 = no damage, 100 = complete death", "how_it_was_run": "as §1"}, "[20]": {"system": "large crabgrass (Digitaria sanguinalis, DIGSA)", "assay": "Pre-emerge test, greenhouse herbicide activity screening", "settings": "pre-emerge, rated 14 days after application, 0 = no damage, 100 = complete death", "how_it_was_run": "as §1"}, "[21]": {"system": "velvetleaf (Abutilon theophrasti, ABUTH)", "assay": "Pre-emerge test, greenhouse herbicide activity screening", "settings": "pre-emerge, rated 14 days after application, 0 = no damage, 100 = complete death", "how_it_was_run": "as §1"}, "[22]": {"system": "lambsquarters (Chenopodium album, CHEAL)", "assay": "Pre-emerge test, greenhouse herbicide activity screening", "settings": "pre-emerge, rated 14 days after application, 0 = no damage, 100 = complete death", "how_it_was_run": "as §1"}, "[23]": {"system": "redroot pigweed (Amaranthus retroflexus, AMARE)", "assay": "Pre-emerge test, greenhouse herbicide activity screening", "settings": "pre-emerge, rated 14 days after application, 0 = no damage, 100 = complete death", "how_it_was_run": "as §3"}}, "data": [{"smiles": "Cn1c(C(F)(F)F)cc(=O)n(-c2c(N)cc(OC(F)F)cc2F)c1=O", "note": "[Compound 1-51]", "values": [{"measurement": "Post-emerge Herbicidal Activity ECHCG", "setting": "[1]; 63 g ai/ha", "value": 0}, {"measurement": "Post-emerge Herbicidal Activity ECHCG", "setting": "[1]; 250 g ai/ha", "value": 10}, {"measurement": "Post-emerge Herbicidal Activity CASOB", "setting": "[2]; 63 g ai/ha", "value": 40}, {"measurement": "Post-emerge Herbicidal Activity CASOB", "setting": "[2]; 250 g ai/ha", "value": 60}, {"measurement": "Post-emerge Herbicidal Activity SETVI", "setting": "[3]; 63 g ai/ha", "value": 0}, {"measurement": "Post-emerge Herbicidal Activity SETVI", "setting": "[3]; 250 g ai/ha", "value": 30}, {"measurement": "Post-emerge Herbicidal Activity AMBEL", "setting": "[4]; 63 g ai/ha", "value": 70}, {"measurement": "Post-emerge Herbicidal Activity AMBEL", "setting": "[4]; 250 g ai/ha", "value": 90}, {"measurement": "Post-emerge Herbicidal Activity IPOHE", "setting": "[5]; 63 g ai/ha", "value": 40}, {"measurement": "Post-emerge Herbicidal Activity IPOHE", "setting": "[5]; 250 g ai/ha", "value": 95}, {"measurement": "Post-emerge Herbicidal Activity DIGSA", "setting": "[6]; 63 g ai/ha", "value": 10}, {"measurement": "Post-emerge Herbicidal Activity DIGSA", "setting": "[6]; 250 g ai/ha", "value": 20}, {"measurement": "Post-emerge Herbicidal Activity AMARE", "setting": "[7]; 63 g ai/ha", "value": 70}, {"measurement": "Post-emerge Herbicidal Activity AMARE", "setting": "[7]; 250 g ai/ha", "value": 70}, {"measurement": "Post-emerge Herbicidal Activity ABUTH", "setting": "[8]; 63 g ai/ha", "value": 60}, {"measurement": "Post-emerge Herbicidal Activity ABUTH", "setting": "[8]; 250 g ai/ha", "value": 80}, {"measurement": "Post-emerge Herbicidal Activity CHEAL", "setting": "[9]; 63 g ai/ha", "value": 30}, {"measurement": "Post-emerge Herbicidal Activity CHEAL", "setting": "[9]; 250 g ai/ha", "value": 95}, {"measurement": "Pre-emerge crop damage RICE (phytotoxicity rating, scale 0-100)", "setting": "[10]; 63 g ai/ha", "value": 10}, {"measurement": "Pre-emerge crop damage RICE (phytotoxicity rating, scale 0-100)", "setting": "[10]; 250 g ai/ha", "value": 70}, {"measurement": "Pre-emerge crop damage CORN (phytotoxicity rating, scale 0-100)", "setting": "[11]; 63 g ai/ha", "value": 0}, {"measurement": "Pre-emerge crop damage CORN (phytotoxicity rating, scale 0-100)", "setting": "[11]; 250 g ai/ha", "value": 70}, {"measurement": "Post-emerge Herbicidal Activity RICE (crop damage)", "setting": "[12]; 63 g ai/ha", "value": 10}, {"measurement": "Post-emerge Herbicidal Activity RICE (crop damage)", "setting": "[12]; 250 g ai/ha", "value": 30}, {"measurement": "Post-emerge Herbicidal Activity CORN (crop damage)", "setting": "[13]; 63 g ai/ha", "value": 10}, {"measurement": "Post-emerge Herbicidal Activity CORN (crop damage)", "setting": "[13]; 250 g ai/ha", "value": 20}, {"measurement": "Pre-emerge Herbicidal Activity SORHA (phytotoxicity rating, scale 0-100)", "setting": "[14]; 63 g ai/ha", "value": 10}, {"measurement": "Pre-emerge Herbicidal Activity SORHA (phytotoxicity rating, scale 0-100)", "setting": "[14]; 250 g ai/ha", "value": 60}, {"measurement": "Pre-emerge Herbicidal Activity ECHCG (phytotoxicity rating, scale 0-100)", "setting": "[15]; 63 g ai/ha", "value": 0}, {"measurement": "Pre-emerge Herbicidal Activity ECHCG (phytotoxicity rating, scale 0-100)", "setting": "[15]; 250 g ai/ha", "value": 50}, {"measurement": "Pre-emerge Herbicidal Activity CASOB (phytotoxicity rating, scale 0-100)", "setting": "[16]; 63 g ai/ha", "value": 0}, {"measurement": "Pre-emerge Herbicidal Activity CASOB (phytotoxicity rating, scale 0-100)", "setting": "[16]; 250 g ai/ha", "value": 30}, {"measurement": "Pre-emerge Herbicidal Activity SETVI (phytotoxicity rating, scale 0-100)", "setting": "[17]; 63 g ai/ha", "value": 30}, {"measurement": "Pre-emerge Herbicidal Activity SETVI (phytotoxicity rating, scale 0-100)", "setting": "[17]; 250 g ai/ha", "value": 90}, {"measurement": "Pre-emerge Herbicidal Activity AMBEL (phytotoxicity rating, scale 0-100)", "setting": "[18]; 63 g ai/ha", "value": 30}, {"measurement": "Pre-emerge Herbicidal Activity AMBEL (phytotoxicity rating, scale 0-100)", "setting": "[18]; 250 g ai/ha", "value": 80}, {"measurement": "Pre-emerge Herbicidal Activity IPOHE (phytotoxicity rating, scale 0-100)", "setting": "[19]; 63 g ai/ha", "value": 50}, {"measurement": "Pre-emerge Herbicidal Activity IPOHE (phytotoxicity rating, scale 0-100)", "setting": "[19]; 250 g ai/ha", "value": 80}, {"measurement": "Pre-emerge Herbicidal Activity DIGSA (phytotoxicity rating, scale 0-100)", "setting": "[20]; 63 g ai/ha", "value": 20}, {"measurement": "Pre-emerge Herbicidal Activity DIGSA (phytotoxicity rating, scale 0-100)", "setting": "[20]; 250 g ai/ha", "value": 90}, {"measurement": "Pre-emerge Herbicidal Activity ABUTH (phytotoxicity rating, scale 0-100)", "setting": "[21]; 63 g ai/ha", "value": 90}, {"measurement": "Pre-emerge Herbicidal Activity ABUTH (phytotoxicity rating, scale 0-100)", "setting": "[21]; 250 g ai/ha", "value": 100}, {"measurement": "Pre-emerge Herbicidal Activity CHEAL (phytotoxicity rating, scale 0-100)", "setting": "[22]; 63 g ai/ha", "value": 90}, {"measurement": "Pre-emerge Herbicidal Activity CHEAL (phytotoxicity rating, scale 0-100)", "setting": "[22]; 250 g ai/ha", "value": 100}, {"measurement": "Pre-emerge Herbicidal Activity AMARE (phytotoxicity rating, scale 0-100)", "setting": "[23]; 63 g ai/ha", "value": 90}, {"measurement": "Pre-emerge Herbicidal Activity AMARE (phytotoxicity rating, scale 0-100)", "setting": "[23]; 250 g ai/ha", "value": 100}]}]}
